Test results taken from the Deep4Chem optical property database.
Each block holds one compound with its values, some of them ahead of it.

Assay: photoluminescence quantum yield (fraction); solvent given as SMILES

Structure (SMILES): CCCC1=Cc2nc1ccc1[nH]c(cc1CCC)c1nc(c(NC(C)=O)cc3[nH]c2cc3CCC)C(CCC)=C1
- photoluminescence quantum yield (in Cc1ccccc1): 0.1

Structure (SMILES): CCCCCCN1C(=O)C(c2ccc(-c3ccc(-n4c5ccccc5c5ccccc54)cc3)cc2)=C(c2ccc(-c3ccc(-n4c5ccccc5c5ccccc54)cc3)cc2)C1=O
- photoluminescence quantum yield (in ClC(Cl)Cl): 0.84
- photoluminescence quantum yield (in c1ccc2c(c1)c1ccccc1n2-c1ccc(-c2ccc(-n3c4ccccc4c4ccccc43)cc2)cc1): 0.57

Structure (SMILES): CCC1=C(C)C(=O)n2c1cc1c(CCC(=O)O)c(C)c(C)n1c2=O
- photoluminescence quantum yield (in CO): 0.95
- photoluminescence quantum yield (in CS(C)=O): 1
- photoluminescence quantum yield (in ClC(Cl)Cl): 1
- photoluminescence quantum yield (in c1ccccc1): 0.84

Structure (SMILES): COC(=O)c1cc(=O)n(C)c2cc(-c3ccc(OC)cc3)sc12
- photoluminescence quantum yield (in C1CCOC1): 0.99
- photoluminescence quantum yield (in CC#N): 0.77
- photoluminescence quantum yield (in CCO): 0.99
- photoluminescence quantum yield (in CN(C)C=O): 0.99
- photoluminescence quantum yield (in CO): 0.99
- photoluminescence quantum yield (in CS(C)=O): 0.99
- photoluminescence quantum yield (in Cc1ccccc1): 0.98
- photoluminescence quantum yield (in ClC(Cl)Cl): 0.95
- photoluminescence quantum yield (in ClCCl): 0.9

Structure (SMILES): O=C1/C(=C/C=C/c2cc3c4c(c2)CCCN4CCC3)CC/C1=C\C=C\c1cc2c3c(c1)CCCN3CCC2
- photoluminescence quantum yield (in CC#N): 0.037
- photoluminescence quantum yield (in CC(C)=O): 0.092
- photoluminescence quantum yield (in CC(C)O): 0.07
- photoluminescence quantum yield (in CCCCCC): 0.13
- photoluminescence quantum yield (in CCCCO): 0.061
- photoluminescence quantum yield (in CCCO): 0.042
- photoluminescence quantum yield (in CCO): 0.026
- photoluminescence quantum yield (in CCOC(C)=O): 0.1
- photoluminescence quantum yield (in CCOCC): 0.26
- photoluminescence quantum yield (in CN(C)C=O): 0.053
- photoluminescence quantum yield (in CO): 0.026
- photoluminescence quantum yield (in CS(C)=O): 0.062
- photoluminescence quantum yield (in Cc1ccccc1): 0.3
- photoluminescence quantum yield (in ClCCl): 0.15
- photoluminescence quantum yield (in OCC(F)(F)F): 0.008
- photoluminescence quantum yield (in S=C=S): 0.078
- photoluminescence quantum yield (in c1ccccc1): 0.3
- photoluminescence quantum yield (in c1ccncc1): 0.17

Structure (SMILES): Cc1c2ccc(=[N+]3CCCCC3)cc-2oc2cc(N3CCCCC3)ccc12
- photoluminescence quantum yield (in ClCCl): 0.91

Structure (SMILES): Cc1ccc(O)c(-c2nc(C)c3n2CCCC3)c1
- photoluminescence quantum yield (in ClCCl): 0.43

Structure (SMILES): CCCCCCCCC1(CCCCCCCC)c2ccccc2-c2ccc(N(c3ccc(-n4c5ccccc5c5ccccc54)cc3)c3ccc4c(c3)C(CCCCCCCC)(CCCCCCCC)c3ccccc3-4)cc21
- photoluminescence quantum yield (in C1CCOC1): 0.24
- photoluminescence quantum yield (in CC#N): 0.31
- photoluminescence quantum yield (in CC(C)=O): 0.31
- photoluminescence quantum yield (in CCCCCC): 0.27
- photoluminescence quantum yield (in CCCCOCCCC): 0.25
- photoluminescence quantum yield (in CCN(CC)CC): 0.27
- photoluminescence quantum yield (in CCOC(C)=O): 0.3
- photoluminescence quantum yield (in CCOCC): 0.37
- photoluminescence quantum yield (in CN(C)C=O): 0.32
- photoluminescence quantum yield (in Cc1ccccc1): 0.36
- photoluminescence quantum yield (in ClCCl): 0.3

Structure (SMILES): CC[N+]1(CC)CN2C(=N1)C(C(=O)O)=Cc1cc(SC)ccc12
- photoluminescence quantum yield (in O): 0.308

Structure (SMILES): COc1ccc(N(c2ccccc2)c2ccccc2)cc1
- photoluminescence quantum yield (in Cc1ccccc1): 0.03

Structure (SMILES): CCCC1=Cc2nc1ccc1[nH]c(cc1CCC)c1nc(c(O)cc3[nH]c2cc3CCC)C(CCC)=C1
- photoluminescence quantum yield (in Cc1ccccc1): 0.15

Structure (SMILES): N#Cc1c(C#N)c(-n2c3ccccc3c3ccccc32)c(-n2c3ccccc3c3ccccc32)c(-n2c3ccccc3c3ccccc32)c1-n1c2ccccc2c2ccccc21
- photoluminescence quantum yield (in Cc1ccccc1): 0.744

Structure (SMILES): COCCOCCOCCOCC(COCCOCCOCCOC)Oc1cc(/C=C/c2ccc(C=C3C(=O)c4ccccc4C3=O)cc2)c(OC(COCCOCCOCCOC)COCCOCCOCCOC)cc1/C=C/c1ccc(C=C2C(=O)c3ccccc3C2=O)cc1
- photoluminescence quantum yield (in ClCCl): 0.23

Structure (SMILES): c1ccc2c(c1)c1ccccc1n2-c1ccc(-c2nnc(-c3ccc(-n4c5ccccc5c5ccccc54)cc3)o2)cc1
- photoluminescence quantum yield (in O=P(c1ccccc1)(c1ccccc1)c1ccccc1Oc1ccccc1P(=O)(c1ccccc1)c1ccccc1): 0.93

Structure (SMILES): C(=C(c1ccccc1)c1ccccc1)c1ccc(-c2ccc(-c3nc4c5ccccc5c5ccccc5c4n3-c3cccc(-c4ccc(C=C(c5ccccc5)c5ccccc5)cc4)c3)cc2)cc1
- photoluminescence quantum yield (in C1CCOC1): 0.145

Structure (SMILES): CCCCCCCCCCn1nnc(-c2ccc(C#Cc3ccc(C#Cc4ccc(-c5nnn(CCCCCCCCCC)n5)cc4)c4nc5c6ccccc6c6ccccc6c5nc34)cc2)n1
- photoluminescence quantum yield (in C1CCOC1): 0.05
- photoluminescence quantum yield (in Cc1ccccc1): 0.07
- photoluminescence quantum yield (in ClCCl): 0.04

Structure (SMILES): O=[N+]([O-])c1ccc(-c2cn3ccc[n+]3[n-]2)cc1
- photoluminescence quantum yield (in ClCCl): 0.16

Structure (SMILES): CCCCCCCCCCc1cc(-c2cc(CCCCCCCCCC)c(-c3cccs3)s2)sc1-c1cccs1
- photoluminescence quantum yield (in CCC(C)C): 0.16

Structure (SMILES): CCn1c2ccccc2c2cc(C#Cc3cc(C#Cc4ccc5c(c4)c4ccccc4n5CC)nc(N4CCCCC4)n3)ccc21
- photoluminescence quantum yield (in C1CCOC1): 0.21
- photoluminescence quantum yield (in CCOC(C)=O): 0.17
- photoluminescence quantum yield (in CN(C)C=O): 0.15
- photoluminescence quantum yield (in Cc1ccccc1): 0.21
- photoluminescence quantum yield (in ClCCl): 0.2

Structure (SMILES): Fc1c(-n2c3ccccc3c3ccccc32)c(F)c(-n2c3ccccc3c3ccccc32)c(-c2nnc(-c3ccccc3)o2)c1-n1c2ccccc2c2ccccc21
- photoluminescence quantum yield (in Cc1ccccc1): 0.06

Structure (SMILES): Cc1nc(-c2cc(C(F)(F)F)ccc2O)n2c1CCCC2
- photoluminescence quantum yield (in ClCCl): 0.61

Structure (SMILES): c1cc2ccc3ccc(-c4ccc(-c5nnc(-c6ccc(-c7nnc(-c8ccc(-c9ccc%10ccc%11cccc%12ccc9c%10c%11%12)s8)o7)cc6)o5)s4)c4ccc(c1)c2c34
- photoluminescence quantum yield (in ClC(Cl)Cl): 0.06

Structure (SMILES): C(=C\c1nc2ccccc2[nH]1)/c1ccc(/C=C/c2nc3ccccc3[nH]2)cc1
- photoluminescence quantum yield (in C1CCOC1): 0.855
- photoluminescence quantum yield (in CC#N): 0.679
- photoluminescence quantum yield (in CC(C)=O): 0.609
- photoluminescence quantum yield (in CN(C)C=O): 0.775
- photoluminescence quantum yield (in CO): 0.738
- photoluminescence quantum yield (in CS(C)=O): 0.63

Structure (SMILES): B1C=Cc2ccc3ccccc3c2N1
- photoluminescence quantum yield (in C1CCCCC1): 0.61

Structure (SMILES): COCCC1=Cc2nc1ccc1[nH]c(cc1CCOC)c1nc(c(OC)cc3[nH]c2cc3CCOC)C(CCOC)=C1
- photoluminescence quantum yield (in Cc1ccccc1): 0.18

Structure (SMILES): Cc1ccc(/C2=C3N=C(C(c4ccccc4)=C/3c3ccccc3)/C(c3ccc(C)cc3)=c3\[nH]/c(c(-c4ccccc4)c3-c3ccccc3)=C(/c3ccc(C)cc3)C3=N/C(=C(/c4ccc(C)cc4)c4[nH]c2c(-c2ccccc2)c4-c2ccccc2)C(c2ccccc2)=C3c2ccccc2)cc1
- photoluminescence quantum yield (in ClCCl): 0.008

Structure (SMILES): Cc1ccsc1-c1ccc(-c2ccc(-c3sccc3C)s2)s1
- photoluminescence quantum yield (in CCC(C)C): 0.19

Structure (SMILES): O=C1NC(=O)C(c2c[nH]c3ccccc23)=C1c1c[nH]c2ccccc12
- photoluminescence quantum yield (in C1CCOC1): 0.24
- photoluminescence quantum yield (in CC#N): 0.1
- photoluminescence quantum yield (in CC(C)OC(C)C): 0.28
- photoluminescence quantum yield (in CCCCOCCCC): 0.22
- photoluminescence quantum yield (in CCO): 0.003
- photoluminescence quantum yield (in CCOC(C)=O): 0.21
- photoluminescence quantum yield (in CN(C)C=O): 0.13
- photoluminescence quantum yield (in Cc1ccccc1): 0.28
- photoluminescence quantum yield (in ClCCl): 0.21

Structure (SMILES): CCOC(=O)/C(C#N)=C\c1ccc2c(c1)c1ccccc1n2-c1ccc(C)cc1
- photoluminescence quantum yield (in C1CCOC1): 0.09
- photoluminescence quantum yield (in CC#N): 0.01
- photoluminescence quantum yield (in CC(C)=O): 0.025
- photoluminescence quantum yield (in CCOC(C)=O): 0.11
- photoluminescence quantum yield (in CO): 0.06
- photoluminescence quantum yield (in CS(C)=O): 0.04
- photoluminescence quantum yield (in Cc1ccccc1): 0.095
- photoluminescence quantum yield (in ClC(Cl)Cl): 0.08

More lines, now with the values ahead:

- photoluminescence quantum yield (in CC#N): 0.41
Structure (SMILES): CCOC(=O)c1c2c3c(ccc(Cl)c3c3cc4ccccc4cc13)N(C)C2=O

- photoluminescence quantum yield (in ClCCl): 0.7
Structure (SMILES): CN(C)c1cc(-c2ccc(C#Cc3ccccc3)cc2)cc2ccccc12

- photoluminescence quantum yield (in ClCCl): 0.125
Structure (SMILES): c1ccc(-c2nc(-c3cccc4ccccc34)n3ccccc23)cc1

- photoluminescence quantum yield (in C1CCCCC1): 0.11
- photoluminescence quantum yield (in CC#N): 0.01
- photoluminescence quantum yield (in CO): 0.03
- photoluminescence quantum yield (in ClC(Cl)Cl): 0.02
Structure (SMILES): CC1(C)CC(/N=C/c2ccc3ccc4cccc5ccc2c3c45)CC(C)(C)N1[O]

- photoluminescence quantum yield (in ClCCl): 0.33
Structure (SMILES): O=c1c2cc(C#Cc3ccc(Cl)cc3)ccc2nc2ccc(C#Cc3ccc(Cl)cc3)cn12

- photoluminescence quantum yield (in ClCCl): 0.05
Structure (SMILES): CC(C)(C)NC(=O)c1cccc2ccc3c4ccc(F)cc4c4cc(F)ccc4c3c12

- photoluminescence quantum yield (in O): 0.77
Structure (SMILES): CCCCn1c(-c2ccc(-c3ccc(-c4ccc(-c5n(CCCC)c6ccccc6[n+]5CCCC)cc4)cc3)cc2)[n+](CCCC)c2ccccc21

- photoluminescence quantum yield (in CCO): 0.59
- photoluminescence quantum yield (in O): 0.45
Structure (SMILES): CN(C)c1ccc2c(-c3cc(C(=O)[O-])ccc3C(=O)[O-])c3ccc(=[N+](C)C)cc-3oc2c1

- photoluminescence quantum yield (in C1CCOC1): 0.586
Structure (SMILES): CCCCC1(CCCC)c2cc(C#Cc3ccc(/C=C(\C)c4ccccc4)cc3)ccc2-c2ccc(C#Cc3ccc(/C=C(\C)c4ccccc4)cc3)cc21

- photoluminescence quantum yield (in ClCCl): 0
Structure (SMILES): O=[N+]([O-])c1ccc(-c2nc(/C=C/c3ccccc3)c(/C=C/c3ccccc3)[nH]2)cc1

- photoluminescence quantum yield (in ClC(Cl)Cl): 0.18
Structure (SMILES): Cc1ccc(C2=C3C=CC4=[N+]3[P-](=O)(=O)n3c2ccc3-c2ccc([nH]2)/C(c2ccc(C)cc2)=c2/cc/c(o2)=C(\c2ccc(C)cc2)c2ccc4[nH]2)cc1

- photoluminescence quantum yield (in CCO): 0.93
Structure (SMILES): Cc1ccc(C(=O)OCc2ccc3c4cccc5cccc(c6cccc2c63)c54)cc1

- photoluminescence quantum yield (in c1cc(-n2c3ccccc3c3ccccc32)cc(-n2c3ccccc3c3ccccc32)c1): 0.37
Structure (SMILES): N#Cc1cc(-n2c3ccccc3c3cccnc32)c(-n2c3ccccc3c3cccnc32)cc1C#N

- photoluminescence quantum yield (in ClCCl): 0.56
Structure (SMILES): CCc1cccc(CC)c1-c1c2ccccc2c(-c2c(CC)cccc2CC)c2cc3ccccc3cc12

- photoluminescence quantum yield (in CC#N): 0.63
Structure (SMILES): Fc1nc(F)c(F)c(C#Cc2ccccc2C#Cc2c(F)c(F)nc(F)c2F)c1F

- photoluminescence quantum yield (in ClCCl): 0.009
Structure (SMILES): CN(C)c1ccc(C#Cc2cc3ccccc3oc2=O)cc1

- photoluminescence quantum yield (in ClCCl): 0.482
Structure (SMILES): CCn1c2cc(-c3ccc(-c4cccs4)s3)ccc2c2ccc(-c3ccc(-c4cccs4)s3)cc21

- photoluminescence quantum yield (in ClCCl): 0.08
Structure (SMILES): COC(=O)c1ccc(C(=O)NC(C)(C)C)c2c1ccc1c3ccccc3c3ccccc3c12

- photoluminescence quantum yield (in CO): 0.016
Structure (SMILES): Nc1ccc(C#Cc2ccc3ccc4ccc(C#Cc5ccc(NS(=O)(=O)c6ccc([N+](=O)[O-])cc6[N+](=O)[O-])cc5)c5ccc2c3c45)cc1

- photoluminescence quantum yield (in ClC(Cl)Cl): 0.36
Structure (SMILES): CC(C)c1cccc(C(C)C)c1-n1c(=O)c2ccc3c4ccc5c(=O)n(-c6c(C(C)C)cccc6C(C)C)c(=O)c6cc7c(-c8ccccn8)nc8cc(c1=O)c2c3c8c7c4c56

- photoluminescence quantum yield (in CO): 0.78
Structure (SMILES): CCN(C)c1ccc(C2=C3C(C)=CC(/C=C/c4ccc(OCC(=O)OC)cc4)=[N+]3[B-](F)(F)n3c(C)cc(C)c32)cc1

- photoluminescence quantum yield (in ClC(Cl)Cl): 0.14
Structure (SMILES): CN(C)c1ccc(-c2ccc(-c3cc(-c4ccccc4)c(-c4ccccc4)c(-c4ccccc4)c3-c3ccccc3)cc2)cc1
